The results in this text go back to EP4778933A1 (Chengdu Hyperway Pharmaceuticals Co., Ltd., priority 2023, dated 2025).

SMILES strings stand for the structures. Read-outs that look alike come from different tables or passages of the source.

This assay concerns KRAS G12D-mediated ERK phosphorylation. In words: Inhibition of KRAS G12D-mediated ERK phosphorylation in AGS cells (in-cell pERK/GAPDH immunofluorescence). It is filed as cell-based. The procedure: Day 1: AGS cells, SW480 cells, NCI H358 cells, HCT116 cells, and KP2 cells were seeded into 384-well cell culture plates and cultured overnight in a 37°C, 5% CO2 incubator.
Day 2: The compounds were added to the plates using Echo550 and incubated for 3 h in a 37°C, 5% CO2 incubator. Then, cells fixed with paraformaldehyde, permeated with methanol and blocked with a blocking solution were added. Finally, a mixed solution of primary antibodies (rabbit anti pERK, mouse anti GAPDH) was added, and the mixture was incubated overnight at 4°C.
Day 3: The mixed solution of primary antibodies was discarded, and a mixed solution of secondary antibodies (goat anti rabbit 800 CW, goat anti mouse 680 RD) was added. The resulting mixture was incubated at room temperature in the dark. Finally, the cell culture plate was washed with PBST, and then inverted for 1 minute of centrifugation. The fluorescence signal values were read with Odyssey CLx.
ERK phosphorylation was calculated according to the following formula: [formula] • Negative control: DMSO • Positive control: 10 µM Reference • IC50 value was fitted and calculated by XLFit 5.0 using the parametric formula. • Y = Bottom+(Top-Bottom)/(1+10^((LogIC50-X)*HillSlope)) • X: log value of compound concentration. • Y: average value of relative expression of p-ERK between replicate wells.

[1] abbreviates: AGS cells, 3 h incubation, read-out: Inhibitory activity on ERK phosphorylation (IC50) AGS-G12D.
Where [2] appears, read: Homo sapiens, AGS, 3 h, AGS cells, 3 h incubation, read-out: Inhibitory activity on ERK phosphorylation (IC50) AGS-G12D.
[3] abbreviates: Homo sapiens, AGS, 3 h, read-out: Inhibitory activity on ERK phosphorylation (IC50) AGS-G12D, AGS cells, 3 h incubation.

As for `CC1(O)COCCN(c2nc(OCC34CCCN3C(c3cc(F)c(F)c(F)c3)CC4)nc3c(F)c(-c4cccc5sc(N)c(C#N)c45)c(Cl)cc23)C1` (single isomer, unassigned) [Example 19, 2-amino-4-[6-chloro-8-fluoro-4-(6-hydroxy-6-methyl-1,4-oxazepan-4-yl)-2-({[3-(3,4,5-trifluorophenyl)-2,3,5,6,7,7a-hexahydro-1H-pyrrolizin-7a-yl]methyl}oxy)quinazolin-7-yl]benzo[b]thiophene-3-carbonitrile], the IC50 under setting [1] is over 1000 nM.
As for `COC1CCN(c2nc(OCC34CCCN3C(c3cc(F)c(F)c(F)c3)CC4)nc3c(F)c(-c4ccc(F)c5sc(N)c(C#N)c45)c(N)cc23)C1` (racemic) [Example 15, 2-amino-4-[6-amino-8-fluoro-4-(3-methoxytetrahydro-1H-pyrrol-1-yl)-2-({[3-(3,4,5-trifluor ophenyl)-2,3,5,6,7,7a-hexahydro-1H-pyrrolizin-7a-yl]methyl}oxy)quinazolin-7-yl]-7-fluorobenzo[b]t hiophene-3-carbonitrile], the IC50 under setting [2] is over 1000 nM.
As to `CC1(O)COCCN(c2nc(OCC34CCCN3C(c3cc(F)c(F)c(F)c3)CC4)nc3c(F)c(-c4cccc5sc(N)c(C#N)c45)c(Br)cc23)C1` (single isomer, unassigned) [Example 24, 2-amino-4-[6-bromo-8-fluoro-4-(6-hydroxy-6-methyl-1,4-oxazepan-4-yl)-2-({[3-(3,4,5-trifluoropheny 1)-2,3,5,6,7,7a-hexahydro-1H-pyrrolizin-7a-yl]methyl}oxy)quinazolin-7-yl]benzo[b]thiophene-3-carb onitrile], for the setting “AGS cells, 3 h incubation”, the IC50 came to 106 nM.
Turning to `CN(C)C(=O)C1CN(c2nc(OCC34CCCN3C(c3cc(F)c(F)c(F)c3)CC4)nc3c(F)c(-c4ccc(F)c5sc(N)c(C#N)c45)c(Cl)cc23)CCCO1` (racemic) [Example 16, 4-[7-(2-amino-3-cyano-7-fluorobenzo[b]thiophen-4-yl)-6-chloro-8-fluoro-2-({[3-(3,4,5-trifluorophenyl)-2,3,5,6,7,7a-hexahydro-1H-pyrrolizin-7a-yl]methyl}oxy)quinazolin-4-yl]-N,N-dimethyl-1,4-oxazepan-2-carboxamide], under setting [2], the IC50 was found to be 380 nM.
Still for that read-out and setting: for `N#Cc1c(N)sc2c(F)ccc(-c3c(Cl)cc4c(N5CCOCC(O)(CO)C5)nc(OCC56CCCN5C(c5cc(F)c(F)c(F)c5)CC6)nc4c3F)c12` (racemic) [Example 2, 2-amino-4-{6-chloro-8-fluoro-4-[6-hydroxy-6-(hydroxymethyl)-1,4-oxazepan-4-yl]-2-({[3-(3,4,5-trifluorophenyl)-2,3,5,6,7,7a-hexahydro-1H-pyrrolizin-7a-yl]methyl}oxy)quinazolin-7-yl}-7-flu orobenzo[b]thiophene-3-carbonitrile] the value was over 1000 nM.
With `CC1(O)COCCN(c2nc(OCC34CCCN3C(c3cc(F)c(F)c(F)c3)CC4)nc3c(F)c(-c4cccc5sc(N)c(C#N)c45)c(I)cc23)C1` (single isomer, unassigned) [Example 30, 2-amino-4-[6-iodo-8-fluoro-4-(6-hydroxy-6-methyl-1,4-oxazepan-4-yl)-2-({[3-(3,4,5-trifluorophenyl)-2,3,5,6,7,7a-hexahydro-1H-pyrrolizin-7a-yl]methyl}oxy)quinazolin-7-yl]benzo[b]thiophene-3-carbonitrile], under setting [1], the IC50 is 94 nM.
`N#Cc1c(N)sc2c(F)ccc(-c3c(Cl)cc4c(N5CCC6(CC5)CC(O)CO6)nc(OCC56CCCN5C(c5cc(F)c(F)c(F)c5)CC6)nc4c3F)c12` (racemic) [Example 14, 8-[7-(2-amino-7-fluorobenzo[b]thiophen-4-yl)-6-chloro-8-fluoro-2-({[3-(3,4,5-trifluorophenyl)-2,3,5,6,7,7a-hexahydro-1H-pyrrolizin-7a-yl]methyl}oxy)quinazolin-4-yl]-8-aza-1-oxaspiro[4.5]de c-3-ol]: the 50% inhibitory concentration (IC50) under setting [3] came out at 758 nM.
For `CC1(O)COCCN(c2nc(OCC34CCCN3C(c3cc(F)c(F)c(F)c3)CC4)nc3c(F)c(-c4cncc5sc(N)c(C#N)c45)c(Cl)cc23)C1` (single isomer, unassigned) [Example 37, 2-amino-4-[6-chloro-8-fluoro-4-(6-hydroxy-6-methyl-1,4-oxazepan-4-yl)-2-({[1-(3,4,5-trifluoropheny 1)octahydrocyclopenta[1,2-a][5]annulen-3a-yl]methyl}oxy)quinazolin-7-yl]thieno[2,3-c]pyridine-3-ca rbonitrile], the IC50 under setting [3] stood at 193 nM.
For `N#Cc1c(N)sc2c(F)ccc(-c3c(Cl)cc4c(N5CC6C[C@@H](C5)c5cccc(=O)n5C6)nc(OCC56CCCN5C(c5cc(F)c(F)c(F)c5)CC6)nc4c3F)c12` (mixture of isomers) [Example 7, 2-amino-4-{6-chloro-8-fluoro-4-[(1S)-6-oxo-7,11-diazatricyclo[7.3.1.02,7]trideca-2(3),4-dien-11-yl]-2-({[3-(3,4,5-trifluorophenyl)-2,3,5,6,7,7a-hexahydro-1H-pyrrolizin-7a-yl]methyl}oxy)quinazolin-7-yl}-7-fluorobenzo[b]thiophene-3-carbonitrile], under “Homo sapiens, AGS cells, 3 h incubation, read-out: Inhibitory activity on ERK phosphorylation (IC50) AGS-G12D”, the IC50 was found to be 738 nM.
As to `N#Cc1c(N)sc2c(F)ccc(-c3c(Cl)cc4c(N5CC6COCC6C5)nc(OCC56CCCN5C(c5cc(F)c(F)c(F)c5)CC6)nc4c3F)c12` (racemic) [Example 8, 4-[4-(3,3a,4,5,6,6a-hexahydro-1H-furano[4,3-c]pyrrolo-5-yl)-6-chloro-8-fluoro-2-({[3-(3,4,5-trifluorophenyl)-2,3,5,6,7,7a-hexahydro-1H-pyrrolizin-7a-yl]methyl}oxy)quinazolin-7-yl]-2-amino-7-fluorobenzo[b]thiophene-3-carbonitrile], the IC50 under setting [3] is over 1000 nM.
On to `CC1(O)COCCN(c2nc(OCC34CCCN3C(c3cc(F)c(F)c(F)c3)CC4)nc3c(F)c(-c4cccc5sc(N)c(C#N)c45)c(I)cc23)C1` (single isomer, unassigned) [Example 32, 2-amino-4-[6-iodo-8-fluoro-4-(6-hydroxy-6-methyl-1,4-oxazepan-4-yl)-2-({[3-(3,4,5-trifluorophenyl)-2,3,5,6,7,7a-hexahydro-1H-pyrrolizin-7a-yl]methyl}oxy)quinazolin-7-yl]benzo[b]thiophene-3-carbonitrile], for which the IC50 under setting [1] came to 24 nM.
With `CC1(O)CCCN(c2nc(OCC34CCCN3C(c3cc(F)c(F)c(F)c3)CC4)nc3c(F)c(-c4ccc(F)c5sc(N)c(C#N)c45)c(Cl)cc23)CC1` (racemic) [Example 6, 2-amino-4-[6-chloro-8-fluoro-4-(4-hydroxy-4-methylazepan-1-yl)-2-({[3-(3,4,5-trifluorophenyl)-2,3,5,6,7,7a-hexahydro-1H-pyrrolizin-7a-yl]methyl}oxy)quinazolin-7-yl]-7-fluorobenzo[b]thioph ene-3-carbonitrile], the IC50 under setting [2] worked out at 787 nM.
For the compound `CC1(O)COCCN(c2nc(OCC34CCCN3C(c3cc(F)c(F)c(F)c3)CC4)nc3c(F)c(-c4cccc5sc(N)c(C#N)c45)c(Br)cc23)C1` (single isomer, unassigned) [Example 27, 2-amino-4-[6-bromo-8-fluoro-4-(6-hydroxy-6-methyl-1,4-oxazepan-4-yl)-2-({[3-(3,4,5-trifluoropheny 1)-2,3,5,6,7,7a-hexahydro-1H-pyrrolizin-7a-yl]methyl}oxy)quinazolin-7-yl]benzo[b]thiophene-3-carb onitrile], for the setting “AGS cells, 3 h incubation”, the IC50 came out at 355 nM.
For `CC1(O)COCCN(c2nc(OCC34CCCN3C(c3cc(F)c(F)c(F)c3)CC4)nc3c(F)c(-c4cccc5sc(N)c(C#N)c45)c(Cl)cc23)C1` (single isomer, unassigned) [Example 20, 2-amino-4-[6-chloro-8-fluoro-4-(6-hydroxy-6-methyl-1,4-oxazepan-4-yl)-2-({[3-(3,4,5-trifluorophenyl)-2,3,5,6,7,7a-hexahydro-1H-pyrrolizin-7a-yl]methyl}oxy)quinazolin-7-yl]benzo[b]thiophene-3-carbonitrile], the concentration for half-maximal inhibition (IC50) under setting [1] was over 1000 nM.
Still for that read-out and setting: for `CC1(O)COCCN(c2nc(OCC34CCCN3C(c3cc(F)c(F)c(F)c3)CC4)nc3c(F)c(-c4cccc5sc(N)c(C#N)c45)c(I)cc23)C1` (single isomer, unassigned) [Example 29, 2-amino-4-[6-iodo-8-fluoro-4-(6-hydroxy-6-methyl-1,4-oxazepan-4-yl)-2-({[3-(3,4,5-trifluorophenyl)-2,3,5,6,7,7a-hexahydro-1H-pyrrolizin-7a-yl]methyl}oxy)quinazolin-7-yl]benzo[b]thiophene-3-carbonitrile] the value was 33 nM.
As for `N#Cc1c(N)sc2c(F)ccc(-c3c(Cl)cc4c(N5CCCC(O)(C(F)(F)F)CC5)nc(OCC56CCCC5C(c5cc(F)c(F)c(F)c5)CC6)nc4c3F)c12` (racemic) [Example 5, 2-amino-4-{6-chloro-8-fluoro-4-[4-hydroxy-4-(trifluoromethyl)azepan-1-yl]-2-({[1-(3,4,5-trifluorophenyl)octahydrocyclopenta[1,2-a][5]annulen-3a-yl]methyl}oxy)quinazolin-7-yl}-7-fluorobenzo[b]thiop hene-3-carbonitrile], under setting [2], the IC50 came out at 313 nM.

One may read the IC50 as the concentration at which inhibition is half-maximal.
